SMILES strings stand for the structures. Where two headings read alike, the source gives them in different places.

This assay deals with C. lectularius. The experiment in a line: residual contact assay in treated glass vials, with Colby synergy analysis. The class given is in vivo. Particulars: Cimex lectularius, 72 h; for mortality at 1 ppm: 1 ppm alpha-cypermethrin; for mortality at 2 ppm: 2 ppm dinotefuran; for mortality at 4 ppm: 4 ppm dinotefuran; for mortality at 6 ppm: 6 ppm dinotefuran; for mortality at 8 ppm: 8 ppm dinotefuran. The method, then:
Glass vials (20 mL scintillation) were treated with 445 μL of varying concentrations of α-cypermethrin dissolved in acetone, respectively dinotefuran or mixtures of α-cypermethrin and dinotefuran in the indicated ratios. Vials were turned on their sides and placed on an automated roller table. The vials were rolled (6 rpm) uncapped to allow an even coating of the treatment. After rolling, vials were allowed to completely dry for at least an hour. Each treatment was replicated five times. Approximately six bed bugs, Cimex lectularius, were placed into each vial and were exposed to treatments at room temperature for the duration of the study.
After dose response testing, assays combining two active ingredients were conducted using the same method described above. The rates used in the combination treatments for each active ingredient, α-cypermethrin and dinotefuran, were the same concentrations used when they were tested independently.
When applied in combination, the toxicological interaction between two compounds is classified based on the resultant impact on the observed effect. The interaction is termed antagonistic when the observed effect is less than the Colby expected mortality based on the responses of the two compounds applied independently at the same doses. When the observed effect of two compounds applied in combination is equal to that of the Colby expected mortality based on the responses of the two compounds applied independently, the relationship is described as additive. Finally, a synergistic interaction means that the effect of the two compounds applied in combination is greater than the Colby expected mortality based on the responses of the two compounds applied independently at the same doses.
Ataxia+mortality data at 48 hours were used to determine whether there was a synergistic effect in the combined use of α-cypermethrin and dinotefuran.
Abbott's correction for control mortality and the Colby method for testing synergy were used to analyze combination data. The method is as follows: Abbott's corrected mortality per observation (at 3 DAE)=[(% observed mortality−% control mortality)/(100%−% control mortality)]×100. Colby's expected mortality per combination observation=% mortality (A)+% mortality (B)−(% mortality (A)×% mortality (B))/100. Synergy ratio=% observed mortality/% Colby expected mortality.
Additive interactions have synergy ratios equal to 1, antagonistic interactions have synergy ratios of less than 1, and synergistic interactions have synergy ratios of greater than 1.

[1] abbreviates: corrected for control mortality, read-out: Abbott's CM (Abbott's corrected mortality).
Setting [2] is: residual contact, read-out: Mortality (%) @ 72 h.

The term mortality denotes the share of the test organisms that died. Regarding `CC1(C)C(C=C(Cl)Cl)C1C(=O)OC(C#N)c1cccc(Oc2ccccc2)c1` (racemic) [alpha-cypermethrin, racemate comprising (R)-α-cyano-3-phenoxybenzyl (1S, 3S)-3-(2,2-dichlorovinyl)-2,2-dimethylcyclopropanecarboxylate; (S)-α-cyano-3-phenoxybenzyl (1R, 3R)-3-(2,2-dichlorovinyl)-2,2-dimethylcyclopropanecarboxylate], the mortality at 1 ppm under setting [1] was 24.1% and the mortality at 1 ppm under setting [2] worked out at 26.7%.
For the compound `CNC(=N[N+](=O)[O-])NCC1CCOC1` (racemic) [dinotefuran, (RS)-1-methyl-2-nitro-3-(tetrahydro-3-furylmethyl) guanidine], under setting [1], the mortality at 2 ppm came out at 3.4%, the mortality at 4 ppm stood at 3.4%, the mortality at 6 ppm turned out to be 3.4% and the mortality at 8 ppm was 3.4%. For the same compound, under setting [2], the mortality at 2 ppm worked out at 6.7%, the mortality at 4 ppm was 6.7%, the mortality at 6 ppm was 6.7% and the mortality at 8 ppm amounted to 6.7%.

Source of the values: patent US12484584B2, “Methods and uses of a mixture comprising alpha-cypermethrin and dinotefuran for controlling bed bugs” (BASF AGRO B.V., priority 2020, dated 2025).
